Drawing on US9175003B2, “Substituted azoanthracene derivatives and intermediates for preparation thereof” (TransTech Pharma, LLC, priority 2009, dated 2015), this text covers EC50 for seven molecules.

The target in this experiment is human GLP-1 receptor (Homo sapiens (Human), UniProt P43220). As to conditions: read-out: Mean EC50; cAMP, HTRF detection, 30 min at 37° C., HEK-293 cells expressing cloned human GLP-1 receptor. For orientation: TR-FRET usually uses a lanthanide donor and a delayed reading to cut background.
Chain of human GLP-1 receptor (P43220 24-463): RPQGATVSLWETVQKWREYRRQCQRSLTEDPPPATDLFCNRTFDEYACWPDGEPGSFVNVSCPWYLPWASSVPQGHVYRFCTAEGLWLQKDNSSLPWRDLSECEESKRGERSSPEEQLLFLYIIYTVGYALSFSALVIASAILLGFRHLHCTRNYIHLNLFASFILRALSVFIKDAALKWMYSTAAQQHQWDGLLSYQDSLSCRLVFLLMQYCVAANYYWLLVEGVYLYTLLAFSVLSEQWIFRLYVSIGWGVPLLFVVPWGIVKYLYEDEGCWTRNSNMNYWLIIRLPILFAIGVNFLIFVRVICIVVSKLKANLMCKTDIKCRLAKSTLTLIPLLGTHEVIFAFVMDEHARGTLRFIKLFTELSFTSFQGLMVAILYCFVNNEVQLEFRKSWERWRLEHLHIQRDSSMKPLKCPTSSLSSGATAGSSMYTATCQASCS

SMILES strings stand for the structures.

A word on the EC50: it is the concentration at which the effect is half-maximal. `CC[C@@H](c1ccccc1)N1Cc2cc3c(cc2C[C@H]1C(=O)N[C@@H](Cc1ccc(-c2ccnc(CF)c2)cc1)C(=O)O)OC[C@H](c1ccc(OCc2ccc(Cl)c(Cl)c2)cc1)O3` [Example 212, (S)-2-{[(3S,8S)-3-[4-(3,4-Dichloro-benzyloxy)-phenyl]-7-((S)-1-phenyl-propyl)-2,3,6,7,8,9-hexahydro-[1,4]dioxino[2,3-g]isoquinoline-8-carbonyl]-amino}-3-[4-(2-fluoromethyl-pyridin-4-yl)-phenyl]-propionic acid]: the EC50 is 34 nM.

Regarding `Cc1nc(C(=O)N2Cc3cc4c(cc3C[C@H]2C(=O)N[C@@H](Cc2ccc(-c3ccnc(C)c3C)cc2)C(=O)O)OC[C@H](c2ccc(OCc3ccc(Cl)c(Cl)c3)cc2)O4)c(C)o1` [Example 216, (S)-2-{[(3S,8S)-3-[4-(3,4-Dichloro-benzyloxy)-phenyl]-7-(2,5-dimethyl-oxazole-4-carbonyl)-2,3,6,7,8,9-hexahydro-[1,4]dioxino[2,3-g]isoquinoline-8-carbonyl]-amino}-3-[4-(2,3-dimethyl-pyridin-4-yl)-phenyl]-propionic acid], the EC50 worked out at 17 nM.

Consider `Cc1nc(C(=O)N2Cc3cc4c(cc3C[C@H]2C(=O)N[C@@H](Cc2ccc(-c3ccnc(C)c3C)cc2)C(=O)O)OC[C@H](c2ccc(OCc3ccc(C)c(C)c3)cc2)O4)c(C)o1` [Example 217, (S)-2-{[(3S,8S)-3-[4-(3,4-Dimethyl-benzyloxy)-phenyl]-7-(2,5-dimethyl-oxazole-4-carbonyl)-2,3,6,7,8,9-hexahydro-[1,4]dioxino[2,3-g]isoquinoline-8-carbonyl]-amino}-3-[4-(2,3-dimethyl-pyridin-4-yl)-phenyl]-propionic acid], for which the EC50 was 24 nM.

On to `Cc1nc(C(=O)N2Cc3cc4c(cc3C[C@H]2C(=O)N[C@@H](Cc2ccc(-c3ccnc(C)c3C)cc2)C(=O)O)OC[C@H](c2ccc(OC[C@H]3CC[C@H](C)CC3)cc2)O4)c(C)o1` [Example 222, (S)-2-({(3S,8S)-7-(2,5-Dimethyl-oxazole-4-carbonyl)-3-[4-(trans-4-methyl-cyclohexyl-methoxy)-phenyl]-2,3,6,7,8,9-hexahydro-[1,4]dioxino[2,3-g]isoquinoline-8-carbonyl}-amino)-3-[4-(2,3-dimethyl-pyridin-4-yl)-phenyl]-propionic acid], for which the EC50 was 75 nM.

On to `Cc1nc(C(=O)N2Cc3cc4c(cc3C[C@H]2C(=O)N[C@@H](Cc2ccc(-c3ccnc(C)c3C)cc2)C(=O)O)OC[C@H](c2ccc(OCC3CCC(F)(F)CC3)cc2)O4)c(C)o1` [Example 223, (S)-2-{[(3S,8S)-3-[4-(4,4-Difluoro-cyclohexylmethoxy)-phenyl]-7-(2,5-dimethyl-oxazole-4-carbonyl)-2,3,6,7,8,9-hexahydro-[1,4]dioxino[2,3-g]isoquinoline-8-carbonyl]-amino}-3-[4-(2,3-dimethyl-pyridin-4-yl)-phenyl]propionic acid], for which the EC50 came out at 176 nM.

As to `Cc1nc(C(=O)N2Cc3cc4c(cc3C[C@H]2C(=O)N[C@@H](Cc2ccc(-c3ccnc(C)c3C)cc2)C(=O)O)OC[C@H](c2ccc(OCC3CCC(C(F)(F)F)CC3)cc2)O4)c(C)o1` (stereo partly drawn) [Example 225, (S)-2-({(3S,8S)-7-(2,5-Dimethyl-oxazole-4-carbonyl)-3-[4-(4-trifluoromethyl-cyclohexylmethoxy)-phenyl]-2,3,6,7,8,9-hexahydro-[1,4]dioxino[2,3-g]isoquinoline-8-carbonyl}-amino)-3-[4-(2,3-dimethyl-pyridin-4-yl)-phenyl]-propionic acid], the EC50 was found to be 183 nM.

Turning to `Cc1nccc(-c2ccc(C[C@H](NC(=O)[C@@H]3Cc4cc5c(cc4CN3Cc3ncccc3F)O[C@@H](c3ccc(OCc4ccc(Cl)c(Cl)c4)cc3)CO5)C(=O)O)cc2)c1C` [Example 228, (S)-2-{[(3S,8S)-3-[4-(3,4-Dichloro-benzyloxy)-phenyl]-7-(3-fluoro-pyridin-2-ylmethyl)-2,3,6,7,8,9-hexahydro-[1,4]dioxino[2,3-g]isoquinoline-8-carbonyl]-amino}-3-[4-(2,3-dimethyl-pyridin-4-yl)-phenyl]-propionic acid], the concentration giving a half-maximal response (EC50) came to 22 nM.
